Reference: a melting point compilation (Tetko et al.; mined from patent text by program, amines drawn as free bases though some values may be those of a salt)

melting point [°C] | SMILES
183 to 185 | NC(=O)NC1CCN(Cc2ccc3ccccc3c2)CC1
245 | Cc1nc(NCc2ccccn2)n(C)c(=O)c1CCO
157 to 160 | COc1ccc2c3c1OC(c1ccccc1)N3C(=O)C1CCCN1C2=O (configuration not stated)
149 to 150 | COc1ccc(Nc2ccc3c(n2)CC(C)(C)CC3=O)cc1
136 to 137 | Cc1ccc2nc(-c3ccccc3F)oc2n1
193 to 194 | Cc1c(Cl)ccc(N(C)C(=O)CN2C(=O)c3ccccc3C2=O)c1Cl
90 to 91 | CC(=O)CN(C(=O)c1ccco1)c1c(C)cccc1C
189 | Cc1c2c(nc3ccccc13)CCN(S(=O)(=O)c1ccc(Cl)cc1)CC2
132 to 138 | NC(=O)c1cnc2ccccc2c1
141 to 143 | CN1c2ccccc2C(C#N)c2ccccc21
235 | O=C(O)c1cc(=O)cc(-c2ccc(OCc3ccccc3)cc2)o1
162 to 165 | Cc1nc(Nc2ccccc2)sc1-c1ccc(Cl)c([N+](=O)[O-])c1
175 to 177 | CN1Cc2ccccc2C(OCC(O)Cn2ccnc2)c2c1nc1ccc(Br)cc1c2Cl (configuration not stated)
185 to 188 | CCc1c(CC)n(Cc2ccccc2Cl)c2cc(C(N)=O)ccc12
115 to 116 | CC(C)Oc1ccc(C2Cc3ccccc3C(=O)N2C)cc1 (configuration not stated)
220 to 221 | OCCCn1cc(-c2cc3nccnc3[nH]2)c2ccccc21
270 to 271 | O=C(O)C1=Cc2cc(C(=O)c3ccccc3)ccc2OC1C(F)(F)F (configuration not stated)

melting point [°C] | SMILES
93.5 to 96.8 | Cc1[nH]c(C(N)=O)c(C)c1-c1ccnc(Nc2ccc(F)cc2)n1
119 to 121 | CCOc1ccc(F)cc1OCCN1C(=O)c2ccccc2C1=O
158 to 160 | CC(=O)n1c(-c2ccc(C#N)cc2)cc2ccccc21
68 to 73 | O=C(O)CON=C(c1ccccc1)c1cc2ccncc2[nH]1
200 to 202 | COC(=O)c1ccccc1S(=O)(=O)NC(=O)c1ccc2c(C)cc(C)nn12
99 to 102 | Cc1ccccc1C[C@H](C(=O)Nc1nc2ccccc2o1)c1ccc(S(C)(=O)=O)cc1
151 to 152 | NC(=O)CCc1cnoc1-c1ccccc1
170 | COc1ccc2nccc(NC(=O)C3CCN(CCc4cnc5ccccc5n4)CC3)c2n1
129 to 130 | COc1ccc2c(c1)CCc1c(C#N)cccc1S2
234 to 236 | CCCCN(NC(=O)c1ccccc1)C(=O)c1ccc(Cl)c(Cl)c1
202 to 203 | CS(=O)(=O)c1ccc(-c2c(-c3ccc(F)cc3)c(C(F)(F)F)nn2-c2ccccc2)cc1
52 | CCN(CC)C(=O)c1cc(-c2ccc(C)cc2)nc2ccccc12
190 to 191 | COc1cccc2oc(-c3ccc(C(F)(F)F)cc3)cc(=O)c12
111 to 113 | CCc1ccc(C(=O)Nc2ccccc2)cc1[N+](=O)[O-]
215 to 216 | O=C(NCCO)c1cccc(-c2cccn3nc(Nc4cccc(C(F)(F)F)c4)nc23)c1
221 to 222 | CCn1ncc2c3noc(-c4ccc(C)cc4)c3cnc21

Continued, compound first:

SMILES | melting point [°C]
O=C(NCCCCC1CCSS1)N1CCCC1 (configuration not stated) | 91 to 93
COC(=O)c1ccc(OC(Cc2ccccc2)C(=O)OC)cc1 (configuration not stated) | 96 to 98
Nc1ncc(-c2cnc3ccc(-c4ccc(OCC5(N)COC5)cc4)nn23)cc1C(F)(F)F | 198 to 200
COc1cc(Nc2cc(C(=O)O)c(C(=O)O)cc2Nc2ccccc2)cc(OC)c1OC | 145 to 146
CCOc1ccc(-c2nc(-c3cc(C=CC(=O)O)c(O)c(C(=O)O)c3)cs2)cc1OCC | 260 to 261
Cc1ccc(C(=O)C(=C2NCCCS2)[N+](=O)[O-])cc1 | 141 to 143
OCCSC(=S)Nc1ccc(Cl)cn1 | 108
O=c1c2ccc(Cl)cc2nc2n1CS(=O)(=O)N2 | > 300
CNC(CNC(=O)c1nc(Cl)c(N)nc1N)CC(=O)NCCN (configuration not stated) | 106 to 109
CNC(=S)n1nc(-c2ccc(Cl)nc2)nc1N | 208 to 211
COC(=O)c1cnn2c(O)cc(C(F)(F)F)nc12 | 216 to 217
COC(=O)CCCc1nc2c([nH]1)c(=O)n(C)c(=O)n2C | 200 to 204
CCOC(=O)C1=C(C)NC(C)=C(C(=O)OCCSC(C)=O)C1c1cccc([N+](=O)[O-])c1 (configuration not stated) | 98 to 101
O=C(CC(CC1CCCCC1)(C(=O)O)C(=O)O)c1ccco1 | 127 to 130
Nc1cc(Cl)c([N+](=O)[O-])cc1CCO | 176
CCC(CC)(CC(=O)Nc1cccc(/C=C/c2cccc(CCCCCCc3ccc(OCCC(C)C)cc3)n2)c1)C(=O)O | 136 to 137
Cc1nnc(O[Si](C)(C)C)nc1O[Si](C)(C)C | 43
CCC1(c2ccc3cc(OC)ccc3c2)OC(C(=O)OC)C(C(=O)OC)O1 (configuration not stated) | 72 to 73
CCOC(=O)C(OC(=O)c1ccc(O)cc1)C(F)(F)F (configuration not stated) | 83.8
O=C1CCCC(c2ccccc2)N1c1ccccc1 (configuration not stated) | 123 to 125
S=C=NC1(Br)C=Cc2nccnc2C1 (configuration not stated) | 157 to 158
CC(C)n1nc(-c2c(-c3ccccc3)nn3ccc(N4CCN(C(=O)N(C)C)CC4)cc23)ccc1=O | 160 to 161
COc1c(O)c(CN2CCN(C)CC2)c(O)c2c(=O)cc(-c3ccccc3)oc12 | 179

SMILES | melting point [°C]
CCOC(=O)c1nc2c(=O)[nH]c3cc(C(F)(F)F)ccc3n2c1P(=O)(OCC)OCC | 198 to 199
CNC(=O)OC1CC(C)(C)N(C)C(C)(C)C1 | 96 to 97
COC(=O)N1C2CC3CC(C2)CC1C3 | 88
COC(=O)CCSc1scnc1C(=O)O | 112 to 116
CC(C)c1cccc(C(C)C)c1NC(=O)C1CCCC(Cc2ccccn2)(c2ccccc2)C1=O (configuration not stated) | 164 to 166
CC(C(=O)O)c1ccc2c(c1)C(c1ccccc1)=NCC(=O)N2 (configuration not stated) | 252 to 255
C/C(=N\OC(=O)c1ccccn1)[C@H]1CC[C@H]2[C@@H]3CCC4=CC(=O)CC[C@]4(C)[C@H]3CC[C@]12C | 172 to 174
O=C(c1ccnc(Cl)c1)N1CC2(CCN(CC=Cc3ccc(C(F)(F)F)cc3)CC2)c2cc(Cl)ccc21 | 130
Nc1nc2ccc3cc(Br)c([N+](=O)[O-])cc3c2c(=O)[nH]1 | > 250
CC(C)[C@H](NC(=O)CNC(=O)OCC1c2ccccc2-c2ccccc21)C(=O)O | 69 to 71
COC(=O)[C@@H](C)c1ccc2c(Br)c(OC)ccc2c1 | 94 to 95
CN1CC(=O)Nc2cccc(Cl)c2C1=O | 230 to 232
CC(=C(C#N)C(=O)c1ccc(F)cc1)N(C)C | 65 to 67
CC(C)(C)OC(=O)NCC(=O)N1[C@@H](C(=O)OC(C)(C)C)C[C@H](S(=O)(=O)c2ccccc2)[C@H]1c1ccccc1F (racemic) | 134
Nc1ccc2oc3c(c2c1)CCCCCC3 | 97 to 98
CCc1c(N)c(C)cc(Cc2cc(C)c(N)c(CC)c2Cl)c1Cl | 143 to 148
CCCc1c(-c2ccc(C(=O)OC)cc2)oc2cc(NC(C)=O)ccc2c1=O | 244
Nc1cc(Cl)ccc1-c1noc(=O)[nH]1 | 159 to 161
COC(=O)c1cc(-c2cccc(C(F)(F)F)c2)c[nH]c1=O | 195 to 201
CC(C)[C@H](NC(=O)OC(C)(C)C)[C@H]1CCn2c(c(C3=C(c4cn(-c5ccccc5)c5ccccc45)C(=O)NC3=O)c3ccccc32)C1 | 165 to 168
CC(C)C[C@H](NC(=O)OC1CCCCC1)C(=O)N[C@@H](Cc1ccccc1)C(=O)CSCc1ccco1 | 102 to 103
CCOC(=O)C(O)(CC(C)(C)c1cc(F)ccc1OC)C(F)(F)F (configuration not stated) | 38 to 39
CCCCn1cc(CCN(C)C)c2c(OCc3ccccc3)cc(F)cc21 | 86 to 89

SMILES | melting point [°C]
CNC(=O)ON=C(C)CN(c1c(C)cccc1C)S(C)(=O)=O | 130 to 134
CCCCCCCCOc1ccc(-c2ncc(O)cn2)c(F)c1F | 84 to 85
C#CCC1CCC(=O)C(C(=O)c2ccc(S(C)(=O)=O)cc2[N+](=O)[O-])C1=O (configuration not stated) | 65 to 70
CCOc1ccc(CNC(=O)n2cc(F)c(=O)[nH]c2=O)cc1OC | 153
Cc1nc(N)c2nc(C)n(CCOCCCc3cccnc3)c2c1C | 109 to 110
Cc1ccc(S(=O)(=O)OCC2CCc3nc(C)sc3C2)cc1 (configuration not stated) | 70 to 71
O=C([C@@H](Cc1ccc(Cl)cc1)NC1CCOCC1)N1CCC(Cn2cncn2)(C2CCCCC2)CC1 | 75
O=C(NCCc1cccc2ccc(OC3CCCCC3)cc12)C1CC1 | 153 to 155
Cn1c(CC(=O)NO)ccc1C(=O)c1ccc(Cl)cc1 | 195
CN1CCCCc2cc(Nc3ncc(Cl)c(N[C@@H]4CCCC[C@H]4NS(C)(=O)=O)n3)ccc21 | 102 to 104
Cc1nccc2[nH]c(=O)c(C(=O)NN)cc12 | > 310
O=C1C=CN=CC1[N+](=O)[O-] (configuration not stated) | 282 to 284
O=C(c1ccc(-c2ccnnc2)cc1)N1CCN(S(=O)(=O)c2cc3cc(Cl)ccc3[nH]2)CC1 | 170 to 172
CN1C(=O)c2cscc2Nc2cc(Cl)c(Cl)cc21 | 265 to 267
O=C(O)Cc1c[nH]c(-c2cc3nc(C(=O)O)c(=O)[nH]c3cc2[N+](=O)[O-])n1 | > 300
CCOC(=O)c1cc2cc(N)ccc2[nH]1 | 124 to 125
CN1CCN(CCO)C1=Nc1ccccc1N1CCOCC1 | 129 to 131
Fc1ccc(C(c2ccc(F)cc2)c2cc(Cl)cc(Cl)c2S)cc1 | 95
CC(C)(C)OC(=O)NCCCCCCCCNC(=O)OC(C)(C)C | 96 to 97
c1cc(-c2c(-c3ccsc3)nc3ccc(N4CC5CNCC5C4)nn23)ccn1 (configuration not stated) | 196 to 198
O=C(O)c1ccc(NCC(O)C(O)C(O)C(O)CO)cc1 (configuration not stated) | 111 to 112
CCc1nn(C2CCCCC2)c2cc(C(=O)Nc3c(Cl)cncc3Cl)ccc12 | 124 to 127
CC(C)[C@H](NC(=O)OC(C)(C)C)C(=O)NCCCN1CCN(CCCNc2cccc3c2C(=O)c2ccccc2C3=O)CC1 | 108
